Reference: patent US4058659A, “6,8-Disubstituted purine derivatives of 9-β-D-ribofuranosyl 3',5'-cyclic phosphate” (ICN Pharmaceuticals, Inc., priority 1975, dated 1977)
Counter-ions that a name gives are not always drawn.

Tests used:
[1] = system: phosphodiesterase; test: Phosphodiesterase inhibition; assay type: biochemical
[2] = system: isolated cat papillary muscle; test: Positive inotropic effect: % change in contractile force in isolated cat papillary muscle; conditions: for activation at 310 µg/mL: 310 μg/ml; for positive inotropic effect: statement in words, isolated cat papillary muscle; for activation at 1 µg/mL: 1.0 μg/ml; for activation at 3.1 µg/mL: 3.1 μg/ml; for activation at 10 µg/mL: 10.0 μg/ml; for activation at 31 µg/mL: 31.0 μg/ml; for activation at 100 µg/mL: 100 μg/ml
[3] = Felis catus, read-out: % change in Contractile Force (CF)

Nc1nc2c(S)ncnc2n1[C@@H]1O[C@@H]2COP(=O)(O)O[C@H]2[C@H]1O [Compound 6, 8-Amino-9-β-D-ribofuranosyl-6-thiopurine 3',5'-Cyclic Phosphate]
inhibition of phosphodiesterase [1]: inhibit phosphodiesterase markedly

CCN(CC)c1nc2c(Cl)ncnc2n1[C@@H]1O[C@@H]2COP(=O)(O)O[C@H]2[C@H]1O [Compound 10, 6-Chloro-8-(diethylamino)-9-β-D-ribofuranosylpurine 3',5'-Cyclic Phosphate]
inhibition of phosphodiesterase [1]: inhibit phosphodiesterase markedly

CC(=O)O[C@@H]1[C@@H]2OP(=O)(O)OC[C@H]2O[C@H]1n1c(SCc2ccccc2)nc2c(Cl)ncnc21 [Compound 13, 2'-o-acetyl-8-(benzylthio)-6-chloro-9-β-D-ribofuranosylpurine 3',5'-Cyclic Phosphate Sodium Salt]
inhibition of phosphodiesterase [1]: inhibit phosphodiesterase markedly

O=P1(O)OC[C@H]2O[C@@H](n3c(SCc4ccccc4)nc4c(SCc5ccccc5)ncnc43)[C@H](O)[C@@H]2O1 [Compound 14, 6,8-Bis-(benzylthio)-9-D-ribofuranosylpurine 3',5'-Cyclic Phosphate Sodium Salt]
inhibition of phosphodiesterase [1]: inhibit phosphodiesterase markedly

CCN(CC)c1ncnc2c1nc(SCc1ccccc1)n2[C@@H]1O[C@@H]2COP(=O)(O)O[C@H]2[C@H]1O [Compound 15, 8-(Benzylthio)-6-(diethylamino)-9-β-D-ribofuranosylpurine 3',5'-CyclicPhosphate]
inhibition of phosphodiesterase [1]: inhibit phosphodiesterase markedly

O=P1(O)OC[C@H]2O[C@@H](n3c(SCc4ccccc4)nc4c(N5CCCC5)ncnc43)[C@H](O)[C@@H]2O1 [Compound 18, 8-(Benzylthio)-6-pyrrolidino-9-β-D-ribofuranosylpurine 3',5'-Cyclic Phosphate]
inhibition of phosphodiesterase [1]: inhibit phosphodiesterase markedly

CCCNc1ncnc2c1nc(SCc1ccccc1)n2[C@@H]1O[C@@H]2COP(=O)(O)O[C@H]2[C@H]1O [Compound 20, 8-(Benzylthio)-6-n-propylamino-9-β-D-ribofuranosylpurine 3',5'-Cyclic Phosphate]
activation at 310 µg/mL [2, 3]: 30% | activation at 500 µg/mL ([2]; Felis catus, 500 μg/ml, read-out: % change in Contractile Force (CF)): 50% | positive inotropic effect [2]: exhibit positive inotropic effect

CN(C)c1ncnc2c1nc(SCc1ccccc1)n2[C@@H]1O[C@@H]2COP(=O)(O)O[C@H]2[C@H]1O [Compound 24, 8-(Benzylthio)-6-dimethylamino-9-β-D-ribofuranosylpurine 3',5'-Cyclic Phosphate]
activation at 1 µg/mL [2, 3]: 4% | activation at 3.1 µg/mL [2, 3]: 9% | activation at 10 µg/mL [2, 3]: 13% | activation at 31 µg/mL [2, 3]: 18% | activation at 100 µg/mL [2, 3]: 45% | activation at 310 µg/mL [2, 3]: 118% | positive inotropic effect [2]: exhibit positive inotropic effect

O=P1(O)OC[C@H]2O[C@@H](n3c(Sc4ccc(Cl)cc4)nc4c(N5CCCCC5)ncnc43)[C@H](O)[C@@H]2O1 [Compound 34, 8-(p-Chlorophenylthio)-6-piperidino-9-β-D-ribofuranosylpurine 3',5'-Cyclic Phosphate]
inhibition of phosphodiesterase [1]: inhibit phosphodiesterase markedly

CCCCNc1ncnc2c1nc(Sc1ccc(Cl)cc1)n2[C@@H]1O[C@@H]2COP(=O)(O)O[C@H]2[C@H]1O [Compound 36, 6-n-Butylamino-8-(p-chlorophenylthio)-9-β-D-ribofuranosylpurine 3',5'-Cyclic Phosphate]
activation at 1 µg/mL [2, 3]: 9.8% | activation at 3.1 µg/mL [2, 3]: 15% | activation at 10 µg/mL [2, 3]: 52.7% | activation at 31 µg/mL [2, 3]: 62.3% | activation at 100 µg/mL [2, 3]: 29.4% | activation at 310 µg/mL [2, 3]: 101% | positive inotropic effect [2]: exhibit positive inotropic effect

O=P1(O)OC[C@H]2O[C@@H](n3c(Sc4ccc(Cl)cc4)nc4c(Nc5ccccc5)ncnc43)[C@H](O)[C@@H]2O1 [Compound 37, 6-Anilino-8-(p-chlorophenylthio)-9-β-D-ribofuranosylpurine 3',5'-Cylic Phosphate]
activation at 1 µg/mL [2, 3]: 2% | activation at 3.1 µg/mL [2, 3]: 10.3% | activation at 10 µg/mL [2, 3]: 31.3% | activation at 31 µg/mL [2, 3]: 50.2% | activation at 100 µg/mL [2, 3]: 74.5% | activation at 310 µg/mL [2, 3]: 82.3% | positive inotropic effect [2]: exhibit positive inotropic effect
